Patent US6872742B2, “Substituted cyclic amine metalloprotease inhibitors” (The Procter & Gamble Company, priority 1996, dated 2005)

Assays:
Format in all cases: in vivo
asthma sufferer = assay: Example E: inhalation aerosol used by an asthma sufferer; settings: 5.0% w/v aerosol, 0.01 mL sprayed into the mouth while inhaling
Method: (§1) The compounds of the invention are useful to prepare compositions for the treatment of ailments and the like. […] In each case the compounds formula I may be substituted for the example compound shown below with similar results. […] The skilled practitioner will appreciate that the examples provide guidance and may be varied based on condition and the patient. A inhalation aerosol composition, according to the present invention, is made comprising: An asthma sufferer sprays 0.01 mL via a pump actuator into the mouth while inhaling.

[1] = tested on: patient having deep corneal abrasion; assay: Example C: saline-based eye drop applied by a patient having deep corneal abrasion; settings: 5% w/w drop applied to each eye twice a day
From the text: as §1, with “saline-based composition for local administration,” for “inhalation aerosol composition,”, “A patient having deep corneal abrasion applies the drop to each eye twice” for “An asthma sufferer sprays 0.01 mL via”, “day.” for “pump actuator into the mouth while inhaling.”

[2] = tested on: patient suffering from chemical burns; assay: Example D: topical composition applied by a patient suffering from chemical burns; settings: 0.20% w/v topical composition at each dressing change (b.i.d.)
From the text: as §1, with “topical composition for local administration,” for “inhalation aerosol composition,”, “A patient suffering from chemical burns applies” for “An asthma sufferer sprays 0.01 mL via a pump actuator into”, “composition at each dressing change (b.i.d.).” for “mouth while inhaling.”

[3] = tested on: human subject suffering from osteoarthritis; assay: Example B: capsule given daily to a subject suffering from osteoarthritis; settings: capsule containing 70 mg daily for 5 years, 90 kg person
From the text: The compounds of the invention are useful to prepare compositions for the treatment of ailments and the like. […] In each case the compounds formula I may be substituted for the example compound shown below with similar results.
The skilled practitioner will appreciate that the examples provide guidance and may be varied based on condition and the patient.
A capsule for oral administration, according to the present invention, is made comprising:
A human subject weighing 90 kg (198 lbs), suffering from osteoarthritis, is treated by a method of this invention. Specifically, for 5 years, a capsule containing 70 mg of the compound of Example 3 is administered daily to said subject.

[4] = tested on: human subject with a premetastatic tumor; assay: Example G: parenteral suspension injected next to a premetastatic tumor; settings: 100 mg/ml suspension, approximately 2.0 ml injected beside the tumor twice daily for approximately 30 days
From the text: The compounds of the invention are useful to prepare compositions for the treatment of ailments and the like. […] In each case the compounds formula I may be substituted for the example compound shown below with similar results. […] The skilled practitioner will appreciate that the examples provide guidance and may be varied based on condition and the patient. A composition for parenteral administration is made comprising: The above ingredients are mixed, forming a suspension. Approximately 2.0 ml of the suspension is administered, via injection, to a human subject with a premetastatic tumor. The injection site juxtaposes the tumor. This dosage is repeated twice daily, for approximately 30 days.

[5] = tested on: human subject suffering from rheumatoid arthritis; assay: Example A: tablets given orally to a subject suffering from rheumatoid arthritis; settings: tablet with 15 mg compound, three tablets per day orally for 2 years, 60 kg person
From the text: The compounds of the invention are useful to prepare compositions for the treatment of ailments and the like. […] In each case the compounds formula I may be substituted for the example compound shown below with similar results. […] The skilled practitioner will appreciate that the examples provide guidance and may be varied based on condition and the patient. A tablet composition for oral administration, according to the present invention, is made comprising: A human subject weighing 60 kg (132 lbs), suffering from rheumatoid arthritis, is treated by a method of this invention. Specifically, for 2 years, a regimen of three tablets per day is administered orally to said subject.

SMILES: COc1ccc(S(=O)(=O)N2C[C@@H](O)C[C@@H]2C(=O)NO)cc1 [Example 2, (1N)-4-Methoxyphenylsulfonyl-(2R)-N-hydroxycarboxamido-(4S)-hydroxypyrrolidine]
- asthma symptoms (asthma sufferer): Asthma symptoms are diminished

SMILES: COc1ccc(S(=O)(=O)N2C[C@@H](Oc3ccccc3)C[C@@H]2C(=O)NO)cc1 [Example 13, (1N)-4-Methoxyphenylsulfonyl-(2R)-N-hydroxycarboxamido-(4S)-phenoxypyrrolidine]
- corneal healing [1]: Healing is speeded, with no visual sequelae

SMILES: COc1ccc(S(=O)(=O)N2C[C@H](O)C[C@H]2C(=O)NO)cc1 [Example 3, (1N)-4-Methoxyphenylsulfonyl-(2S)-N-hydroxycarboxanido-(4R)-hydroxypyrrolidine]
- scarring [2]: Scarring is substantially diminished
- orthoscopy finding at the end of the treatment period (erosion/fibrillation of the articular cartilage) [3]: no further advancement of erosion/fibrillation of the articular cartilage

SMILES: COc1ccc(S(=O)(=O)N2C[C@@H](O)C[C@H]2C(=O)NO)cc1 [Example 4, (1N)-4-Methoxyphenylsulfonyl-(2S)-N-hydroxycarboxanido-(4S)-hydroxy-pyrrolidine]
- symptoms of the disease after 30 days [4]: symptoms of the disease subside

SMILES: COc1ccc(S(=O)(=O)N2C[C@H](Sc3nccn3C)C[C@@H]2C(=O)NO)cc1 [Example 9, (1N)-4-Methoxyphenylsulfonyl-(2R)-N-hydroxycarboxado-(4R)-[(1N)-methyl-2-mercaptoimidazyl]-pyrrolidine]
- findings on examination at the end of the treatment period (inflammation, mobility, pain) [5]: reduced inflammation, and improved mobility without concomitant pain
